Source: patent US20240270741A1 (Cogent Biosciences, Inc., priority 2023, published 2024)

molecular target: FGFR2 (Homo sapiens, UniProt P21802); assay: FGFR wild type enzyme assay (HTRF KinEASE-TK), FGFR2; details: Enz FGFR2 (nM), FGFR2 wild type enzyme
Sequence (P21802 399-821 limits assumed): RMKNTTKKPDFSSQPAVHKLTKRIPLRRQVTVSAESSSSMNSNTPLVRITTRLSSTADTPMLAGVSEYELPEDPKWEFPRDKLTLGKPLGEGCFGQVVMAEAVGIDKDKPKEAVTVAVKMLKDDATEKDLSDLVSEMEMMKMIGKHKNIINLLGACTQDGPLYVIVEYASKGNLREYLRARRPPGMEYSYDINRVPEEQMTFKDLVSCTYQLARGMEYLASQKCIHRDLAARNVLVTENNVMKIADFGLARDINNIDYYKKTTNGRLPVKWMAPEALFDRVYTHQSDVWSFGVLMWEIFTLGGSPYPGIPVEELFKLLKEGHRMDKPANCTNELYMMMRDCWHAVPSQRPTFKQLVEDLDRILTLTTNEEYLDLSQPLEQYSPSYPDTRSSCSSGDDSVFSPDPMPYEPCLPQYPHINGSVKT

IC50 [nM]	Compound
2	CO[C@H](C)CN1CCC(n2ncc(-c3cc(Sc4ncccc4F)c4c(C#N)cnn4c3)c2C)CC1 [Example 148, (R)-4-((3-fluoropyridin-2-yl)thio)-6-(1-(1-(2-methoxypropyl)piperidin-4-yl)-5-methyl-1H-pyrazol-4-yl)pyrazolo[1,5-a]pyridine-3-carbonitrile]
2	CO[C@@H](C)CN1CCC(n2ncc(-c3cc(Sc4ncccc4F)c4c(C#N)cnn4c3)c2C)CC1 [Example 149, (S)-4-((3-fluoropyridin-2-yl)thio)-6-(1-(1-(2-methoxypropyl)piperidin-4-yl)-5-methyl-1H-pyrazol-4-yl)pyrazolo[1,5-a]pyridine-3-carbonitrile]
4	Cc1c(-c2cc(Sc3ncccc3F)c3c(C#N)cnn3c2)cnn1C[C@@H]1CCCNC1 [Example 150, (R)-4-((3-fluoropyridin-2-yl)thio)-6-(5-methyl-1-(piperidin-3-ylmethyl)-1H-pyrazol-4-yl)pyrazolo[1,5-a]pyridine-3-carbonitrile]
2	Cc1c(-c2cc(Sc3c(F)cc(F)cc3C#N)c3c(C#N)cnn3c2)cnn1C1CCN(C)CC1 [Example 151]
2	CC(=O)N1CCC(n2ncc(-c3cc(Sc4ncccc4F)c4c(C#N)cnn4c3)c2C)CC1 [Example 152, 6-(1-(1-acetylpiperidin-4-yl)-5-methyl-1H-pyrazol-4-yl)-4-((3-fluoropyridin-2-yl)thio)pyrazolo[1,5-a]pyridine-3-carbonitrile]
2	Cc1c(-c2cc(Sc3ncccc3F)c3c(C#N)cnn3c2)cnn1C1CCN(S(C)(=O)=O)CC1 [Example 153, 4-[(3-fluoro-2-pyridyl)sulfanyl]-6-[5-methyl-1-(1-methylsulfonyl-4-piperidyl)pyrazol-4-yl]pyrazolo[1,5-a]pyridine-3-carbonitrile]
2	Cc1c(-c2cc(Sc3ncccc3F)c3c(C#N)cnn3c2)cnn1[C@H]1CCNC[C@@H]1F [Example 154, 6-[1-[(3S,4S)-3-fluoro-4-piperidyl]-5-methyl-pyrazol-4-yl]-4-[(3-fluoro-2-pyridyl)sulfanyl]pyrazolo[1,5-a]pyridine-3-carbonitrile]
1	CO[C@@H](C)CN1CCC(n2ncc(-c3cc(Sc4ccccc4C#N)c4c(C#N)cnn4c3)c2C)CC1 [Example 157, (S)-4-((2-cyanophenyl)thio)-6-(1-(1-(2-methoxypropyl)piperidin-4-yl)-5-methyl-1H-pyrazol-4-yl)pyrazolo[1,5-a]pyridine-3-carbonitrile]
2	COCC(C)N1CCC(n2ncc(-c3cc(Sc4ncccc4F)c4c(C#N)cnn4c3)c2C)CC1 (stereo not drawn) [Example 158, 4-((3-fluoropyridin-2-yl)thio)-6-(1-(1-(1-methoxypropan-2-yl)piperidin-4-yl)-5-methyl-1H-pyrazol-4-yl)pyrazolo[1,5-a]pyridine-3-carbonitrile]
0.5	Cc1c(-c2cc(Sc3ccccc3C#N)c3c(C#N)cnn3c2)cnn1C1CCC(N(C)C)CC1 (stereo not drawn) [Example 159]
2	Cc1c(-c2cc(Sc3ncccc3F)c3c(C#N)cnn3c2)cnn1[C@@H](C)C1CCN(C)CC1 [Example 160, (S)-4-((3-fluoropyridin-2-yl)thio)-6-(5-methyl-1-(1-(1-methylpiperidin-4-yl)ethyl)-1H-pyrazol-4-yl)pyrazolo[1,5-a]pyridine-3-carbonitrile]
2	Cc1c(-c2cc(Sc3ncccc3F)c3c(C#N)cnn3c2)cnn1[C@@H](C)C1CCNCC1 [Example 161, 4-[(3-fluoro-2-pyridyl)sulfanyl]-6-[5-methyl-1-[(1S)-1-(4-piperidyl)ethyl]pyrazol-4-yl]pyrazolo[1,5-a]pyridine-3-carbonitrile]
1	Cc1c(-c2cc(Sc3ncccc3F)c3c(C#N)cnn3c2)cnn1C1CC2(CCNCC2)C1 [Example 162, 4-((3-fluoropyridin-2-yl)thio)-6-(5-methyl-1-(7-azaspiro[3.5]nonan-2-yl)-1H-pyrazol-4-yl)pyrazolo[1,5-a]pyridine-3-carbonitrile]
3	Cc1c(-c2cc(Sc3ncccc3F)c3c(C#N)cnn3c2)cnn1C1CCN(C(=O)CO)CC1 [Example 163, 4-((3-fluoropyridin-2-yl)thio)-6-(1-(1-(2-hydroxyacetyl)piperidin-4-yl)-5-methyl-1H-pyrazol-4-yl)pyrazolo[1,5-a]pyridine-3-carbonitrile]
5	CC(=O)N1CCC(n2ncc(-c3cc(Sc4ncc(F)cc4F)c4c(C#N)cnn4c3)c2C)CC1 [Example 164, 6-(1-(1-acetylpiperidin-4-yl)-5-methyl-1H-pyrazol-4-yl)-4-((3,5-difluoropyridin-2-yl)thio)pyrazolo[1,5-a]pyridine-3-carbonitrile]
2	Cc1c(-c2cc(Sc3ncccc3F)c3c(C#N)cnn3c2)cnn1[C@H]1CCCN(S(C)(=O)=O)C1 [Example 165, (S)-4-((3-fluoropyridin-2-yl)thio)-6-(5-methyl-1-(1-(methylsulfonyl)piperidin-3-yl)-1H-pyrazol-4-yl)pyrazolo[1,5-a]pyridine-3-carbonitrile]
2	CC(=O)N1CCC[C@H](n2ncc(-c3cc(Sc4ncccc4F)c4c(C#N)cnn4c3)c2C)C1 [Example 166, (S)-6-(1-(1-acetylpiperidin-3-yl)-5-methyl-1H-pyrazol-4-yl)-4-((3-fluoropyridin-2-yl)thio)pyrazolo[1,5-a]pyridine-3-carbonitrile]
2	Cc1c(-c2cc(Sc3ncccc3F)c3c(C#N)cnn3c2)cnn1[C@H]1CCCN(C(=O)CO)C1 [Example 167, (S)-4-((3-fluoropyridin-2-yl)thio)-6-(1-(1-(2-hydroxyacetyl)piperidin-3-yl)-5-methyl-1H-pyrazol-4-yl)pyrazolo[1,5-a]pyridine-3-carbonitrile]
1	Cc1c(F)ccc(Sc2cc(-c3cnn(C4CCNCC4)c3C)cn3ncc(C#N)c23)c1C#N [Example 168]
0.4	C[C@H](O)CN1CC[C@@H](n2cc(-c3cc(Sc4ccccc4C#N)c4c(C#N)cnn4c3)cn2)C1 [Example 169, 4-(2-cyanophenyl)sulfanyl-6-[1-[(3R)-1-[(2S)-2-hydroxypropyl]pyrrolidin-3-yl]pyrazol-4-yl]pyrazolo[1,5-a]pyridine-3-carbonitrile]
72	Cc1c(-c2cc(Sc3ccccc3C#N)c3c(C#N)cnn3c2)cnn1C[C@@H]1CCCNC1 [Example 170, 4-(2-cyanophenyl)sulfanyl-6-[5-methyl-1-[[(3R)-3-piperidyl]methyl]pyrazol-4-yl]pyrazolo[1,5-a]pyridine-3-carbonitrile]
1	Cc1c(-c2cc(Sc3ncccc3F)c3c(C#N)cnn3c2)cnn1C1CCC(N(C)C)CC1 (stereo not drawn) [Example 171]
1	CCN(C)C1CCC(n2ncc(-c3cc(Sc4ncccc4F)c4c(C#N)cnn4c3)c2C)CC1 (stereo not drawn) [Example 172, 6-(1-(4-(ethyl(methyl)amino)cyclo-hexyl)-5-methyl-1H-pyrazol-4-yl)-4-((3-fluoropyridin-2-yl)thio)pyrazolo[1,5-a]pyridine-3-carbonitrile]
1	Cc1c(-c2cc(Sc3ncccc3F)c3c(C#N)cnn3c2)cnn1C1CCC(N(C)C(=O)CN(C)C)CC1 (stereo not drawn) [Example 173, N-(4-(4-(3-cyano-4-((3-fluoropyridin-2-yl)thio)pyrazolo[1,5-a]pyridin-6-yl)-5-methyl-1H-pyrazol-1-yl)cyclohexyl)-2-(dimethylamino)-N-methylacetamide]
